Source: patent US9102674B2, “Substituted naphthyridine and quinoline compounds as MAO inhibitors” (DART NEUROSCIENCE (CAYMAN) LTD., priority 2013, dated 2015)

Molecular target: T1, Human recombinant MAO-B (Homo sapiens, UniProt P27338)
T1 construct: host or cells: insect cells
T1 sequence (P27338 1-520): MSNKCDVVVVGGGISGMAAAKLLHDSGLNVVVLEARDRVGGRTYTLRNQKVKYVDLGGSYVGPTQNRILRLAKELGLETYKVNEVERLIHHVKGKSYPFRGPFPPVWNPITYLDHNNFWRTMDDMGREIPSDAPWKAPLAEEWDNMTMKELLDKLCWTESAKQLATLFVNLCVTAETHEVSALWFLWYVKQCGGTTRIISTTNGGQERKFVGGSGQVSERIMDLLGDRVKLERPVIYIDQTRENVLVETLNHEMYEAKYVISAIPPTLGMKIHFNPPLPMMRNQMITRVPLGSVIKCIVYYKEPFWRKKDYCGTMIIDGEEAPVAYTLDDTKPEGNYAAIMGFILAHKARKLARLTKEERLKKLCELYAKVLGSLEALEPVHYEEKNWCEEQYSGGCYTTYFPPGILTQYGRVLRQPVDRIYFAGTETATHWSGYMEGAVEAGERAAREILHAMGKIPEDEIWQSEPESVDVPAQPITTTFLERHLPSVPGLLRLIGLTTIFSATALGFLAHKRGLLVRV
Test: MAO-B enzymatic assay (fluorometric, kynuramine)
Format: biochemical
Conditions: human recombinant MAO-B expressed in insect cells; kynuramine substrate; values given as bins; read-out: MAO-B (pEC50) (converted)
Description: The MAO enzymatic assay was performed according to the fluorometric method described by Matsumoto and colleagues (Matsumoto et al., Clin. Biochem. 1985, 18, 126-129) with the following modifications. Human recombinant MAO-A and MAO-B expressed in insect cells were used. For both assays, test compound and/or vehicle were preincubated with purified enzyme in phosphate buffer pH 7.4 for 15 minutes at 37° C. The reaction was initiated by addition of […] kynuramine. Following a 60 minute incubation period, the reaction was terminated by the addition of 6 N NaOH. The amount of 4-hydroxyquinoline that formed was determined by spectrofluorimetrically at 325 nm/465 nm.
Results were converted to percent inhibition, and the EC50 (M) for each reaction was determined using the XLfit program from IDBS (ID Business Solutions Ltd., 2 Occam Court, Surrey Research Park, Guildford, Surrey, GU2 7QB UK). The EC50 represents the concentration of a compound where 50% of its maximal effect is observed. The pEC50 is defined as the negative logarithm of the EC50; a higher pEC50 value therefore corresponds to higher potency in the assay.
Representative compounds of the invention were evaluated in the MAO-B enzymatic assay. Typically, the compounds of the invention show MAO-B inhibitory properties at a concentration of 0.1 to 10 μM, typically at 5-100%.
As depicted in the following Table, these inhibitory properties were mirrored by pEC50 values ranging from 5 (meaning 10^−5 M or 10 μM) to greater than 7 (meaning less than 10^−7 M or 0.1 μM).

Compound | EC50
Cc1nc2cc(OCc3ccc(F)c(Cl)c3)ccc2cc1C(C)(C)O [Example 33, 2-(7-((3-Chloro-4-fluorobenzyl)oxy)-2-methylquinolin-3-yl)propan-2-ol] | < 100 nM
Cc1nc2cc(OCc3cccc(Cl)c3)ccc2cc1C(C)(C)O [Example 32, 2-(7-((3-Chlorobenzyl)oxy)-2-methylquinolin-3-yl)propan-2-ol] | < 100 nM
CCOC(=O)c1cc2ccc(OCc3ccc(F)c(Cl)c3)cc2nc1C [Example 23, Ethyl 7-((3-chloro-4-fluorobenzyl)oxy)-2-methylquinoline-3-carboxylate] | < 100 nM
C[C@@H](O)c1cnc2cc(OCc3ccc(F)cc3)ccc2c1 [Example 44, (R)-1-(7-((4-Fluorobenzyl)oxy)quinolin-3-yl)ethanol] | < 100 nM
OCc1cnc2cc(OCc3cc(F)c(F)c(F)c3)ccc2c1 [Example 37, (7-((3,4,5-Trifluorobenzyl)oxy)quinolin-3-yl)methanol] | < 100 nM
CCOC(=O)c1cnc2cc(OCc3cccc(C)c3)ccc2c1 [Example 7, Ethyl 7-((3-methylbenzyl)oxy)quinoline-3-carboxylate] | < 100 nM
CCOC(=O)c1cnc2cc(OCc3ccc(C(F)(F)F)cc3)ccc2c1 [Example 6, Ethyl 7-((4-(trifluoromethyl)benzyl)oxy)quinoline-3-carboxylate] | 100 to 1000 nM
CCOC(=O)c1cnc2cc(OCc3cccc(OC)c3)ccc2c1 [Example 9, Ethyl 7-((3-methoxybenzyl)oxy)quinoline-3-carboxylate] | < 100 nM
CC(C)(O)c1cnc2cc(OCc3cccc(Cl)c3)ccc2c1 [Example 28, 2-(7-((3-Chlorobenzyl)oxy)quinolin-3-yl)propan-2-ol] | < 100 nM
CCOC(=O)c1cnc2cc(OCCc3cccc(Cl)c3)ccc2c1 [Example 25, Ethyl 7-(3-chlorophenethoxy)quinoline-3-carboxylate] | 100 to 1000 nM

Now from value to compound:

EC50 | Compound
1000 to 10000 nM | CC(C)(O)Cc1cnc2cc(OCc3cccc(Cl)c3)ccc2c1 [Example 63, 1-(7-((3-Chlorobenzyl)oxy)quinolin-3-yl)-2-methylpropan-2-ol]
< 100 nM | NC(=O)Cc1cnc2cc(OCc3cccc(Cl)c3)ccc2c1 [Example 55, 2-(7-((3-Chlorobenzyl)oxy)quinolin-3-yl)acetamide]
< 100 nM | OCc1cnc2cc(OCc3ccc(F)c(F)c3)cnc2c1 [Example 73, (7-((3,4-Difluorobenzyl)oxy)-1,5-naphthyridin-3-yl)methanol]
< 100 nM | NC(=O)c1cnc2cc(OCc3cccc(F)c3)cnc2c1 [Example 67, 7-[(3-Fluorophenyl)methoxy]-1,5-naphthyridine-3-carboxamide]
< 100 nM | NCCNC(=O)c1cnc2cc(OCc3cccc(Cl)c3)ccc2c1 [Example 47, N-(2-Aminoethyl)-7-((3-chlorobenzyl)oxy)quinoline-3-carboxamide]
100 to 1000 nM | NC(=O)Cc1cnc2cc(OCc3cccc(C(F)(F)F)n3)cnc2c1 [Example 81, 2-(7-((6-(Trifluoromethyl)pyridin-2-yl)methoxy)-1,5-naphthyridin-3-yl)acetamide]
< 100 nM | OCCc1cnc2cc(OCc3cccc(Cl)c3)ccc2c1 [Example 56, 2-(7-((3-Chlorobenzyl)oxy)quinolin-3-yl)ethanol]
100 to 1000 nM | CCOC(=O)C(C)(C)c1cnc2cc(OCc3cccc(Cl)c3)ccc2c1 [Example 59, Ethyl 2-(7-((3-chlorobenzyl)oxy)quinolin-3-yl)-2-methylpropanoate]
